Assay results reported in PMC9503778, “Targeted Isolation of Antibiotic Brominated Alkaloids from the Marine Sponge Pseudoceratina durissima Using Virtual Screening and Molecular Networking” (Marine Drugs, 2022).
Values after ≈ are worked out from the molar mass of the structure shown. Values joined by “and” are separate entries in the source; they are usually repeats but may differ in a detail not shown here. Identical values can stand only once. Like-named read-outs stand apart in the source and are kept apart here.

Columns and labels:
[1] = system: C. neoformans var. grubii strain ATCC 208821; experiment: Antimicrobial growth inhibition (CO-ADD), C. neoformans; type: cell-based; details: Cryptococcus neoformans
[2] = system: P. auruginosa (G-) strain ATCC 27853; experiment: Antimicrobial growth inhibition (CO-ADD), P. aeruginosa; type: cell-based, Pseudomonas aeruginosa; details: for % inhibition P. aeruginosa: 32 µg/mL; for MIC / inhibition at 32 µg/mL: Pseudomonas aeruginosa
Experimental: (§1) Compounds 1−3 and 5−12 were assayed against a selection of medically important pathogenic microorganisms (MRSA, E. coli, K. pneumoniae, A. baumanii, P. aeruginosa, C. albicans, C. neoformans), Table 4. […] To the best of our knowledge this compound had not been tested against any drug resistant strain of Gram-positive bacterium until this study.
(§2) The antimicrobial activity testing was performed by the Community for Antimicrobial Drug Discovery (CO-ADD). Compounds were assayed against a range of both Gram negative and Gram positive bacteria (see Supplementary Materials S3) including methicillin-resistant Staphylococcus aureus (MRSA) (G+), Escherichia coli (G-), Klebsiella pneumoniae (G-), Acinetobacter baumannii (G-), Pseudomonas aeruginosa (G-) together with two species of fungus (Candida albicans and Cryptococcus neoformans).
(§3) S3. Antimicrobial activity testing methodology
(§4) The compounds submitted to CO-ADD were evaluated in duplicate (n = 2) against seven microorganisms (five bacteria and two fungi) at a concentration of 32 µg/mL in a 384-well, non-binding surface plate (NBS) for each bacterial/fungal strain, keeping the final DMSO concentration to a maximum of 1% DMSO. All bacteria were cultured in cation-adjusted Mueller-Hinton broth (CAMHB) at 37 °C overnight. A sample of each culture was then diluted 40-fold in fresh broth and incubated at 37 °C for 1.5-3 h. The resultant mid-log phase cultures were diluted (CFU/mL measured by OD600), then added to each well of the compound containing plates, giving a cell density of 5x10^5 CFU/mL and a total volume of 50 µL. All the plates were covered and incubated at 37 °C for 18 h without shaking. […] Inhibition of bacterial growth was determined measuring absorbance at 600 nm (OD600) using a Tecan M1000 Pro mon-ochromator plate reader. […]
(§5) 2 h. The absorbance was measured using a Biotek Synergy HTX plate reader. The percentage of growth inhibition was calculated for each well, using negative control (medium only) and positive control (bacteria without inhibitors) on the same plate as the references. The significance of inhibition values was determined by modified Z-scores, calculated using the median and MAD of the samples (no controls) on the same plate. Samples with inhibition value above 80% and Z-score above 2.5 for either replicate (n = 2 on different plates) were classed as actives.
(§6) Colistin and vancomycin were used as positive bacterial inhibitor standards for Gram-negative and Gram-positive bac-teria, respectively. Fluconazole was used as a positive fungal inhibitor standard for C. albicans and C. neoformans. The antibiotics were provided in four concentrations, with two above and two below its MIC value, and plated into the first eight wells of column 23 of the 384-well NBS plates. The quality control (QC) of the assays was determined by the antimicrobial controls and the Z’-factor (using positive and negative controls). Each plate was deemed to fulfil the qual- […]
(§7) full growth inhibition at their highest concentration, and no growth inhibition at their lowest concentration. The seven […]
(§8) test microorganisms were Staphylococcus aureus MRSA (ATCC 43300), Escherichia coli (ATCC 25922), Klebsiella pneu-moniae (ATCC 700603), Acinetobacter baumanii (ATCC19606), Pseudomonas aeruginosa (ATCC 27853), Candida albicans (ATCC 90028) and Cryptococcus neoformans var. grubii (H99; ATCC 208821).
(§9) S4. Anthelmintic activity testing methodology
(§10) Dose-response evaluations were carried out to estimate the half-maximal inhibitory concentrations (IC50 values) for compounds against Haemonchus contortus (Haecon-5 strain) exsheathed third-stage larvae (xL3s). H. contortus were maintained in experimental sheep and procured in accordance with the institutional animal ethics guidelines and the regulations of Australia (permit no. 1714374; University of Melbourne). Immediately prior to use, third-stage larvae (L3s) were exsheathed and sterilised by incubation in 0.15% (v/v) bleach at 38 °C for 20 min, followed by washes in […]

[3] = system: A. baumannii (G-) strain ATCC 19606; experiment: Antimicrobial growth inhibition (CO-ADD), A. baumannii; type: cell-based, Acinetobacter baumannii; details: for % inhibition A. baumannii: 32 µg/mL; for MIC / inhibition at 32 µg/mL: Acinetobacter baumannii
Experimental: as §1, §2, §3, §4, §5, §6, §7, §8, §9, §10

[4] = Cytotoxicity assay (CO-ADD); type: cell-based; details: human embryonic kidney cells
[5] = system: zebrafish (Danio rerio) larvae at 5 dpf; experiment: Zebrafish larvae spontaneous, unstimulated swimming bioassay; type: in vivo; details: for Spontaneous swimming, mean distance moved: 10 nM and 100 nM, compared with 1 nM
Experimental: (§11) For the zebrafish bioactivity assay, three experiments were performed on 5 days post fertilization (dpf) zebrafish larvae treated with methanol crude extracts from all four sponge specimens, using total distance moved as an endpoint metric. Spontaneous swimming experiments were performed according to the following protocol: allowing a 2 min acclimatization period in darkness followed by a 5 min darkness swimming period, where total distance moved was measured. Simulated predator response (SPR) experiments were performed involving a 2 min acclimatization period in light conditions, followed by 3 min in light free swimming and a measurement period of 3 mins in dark. Finally, a Larval Photo-motor Response (LPR) experiment was conducted beginning with 2 mins light acclimatization followed by three cycles of alternating photic stimulus (each cycle consisting of 4 min light –4 min dark conditions to assess the profile of the treatment across time, Figure 8.
(§12) Basal behavioral analysis was conducted on zebrafish (Danio rerio) larvae at 5 dpf using an in-house custom-built behavioral analysis system. All assays followed standard protocols as previously described.
(§13) Zebrafish were housed and bred in the AquaCore facility, Monash University, according to standard procedures. Larvae were maintained in E3 media (5mM NaCl, 0.17mM KCl, 0.33 mM CaCl2, 0.33 mM MgSO4, supplemented with 1 x 10 – 5% methylene blue as antimycotic).
(§14) Digital video processing and animal tracking was performed using Ethovision XT ver.16 (Noldus Inc., Wageningen, The Netherlands) using a standardized method as described before.
(§15) All data was averaged across replicate larvae for each treatment and control, respectively, and presented as mean ± SEM. Cumulative distance traveled by larvae was measured by summing the incremental distance moved by each larva between frames of video files. Statistical analysis and data presentation was performed using Prism 8 (GraphPad Software Inc., San Diego, CA, USA). Data sets were tested for outliers and normality of distribution, followed by either one-way or two-way ANOVA testing for significance. […] Where time point data was collected significance was compared for each time domain with that of vehicle controls. Significance was universally set to p < 0.05.

[6] = system: zebrafish (Danio rerio) larvae at 5 dpf; experiment: Zebrafish Larval Photo-motor Response (LPR) bioassay; type: in vivo; details: 1 nM, 10 nM and 100 nM
Experimental: as §11
Basal behavioral analysis was conducted on zebrafish (Danio rerio) larvae at 5 dpf using an in-house custom-built behavioral analysis system. […]
All data was averaged across replicate larvae for each treatment and control, respectively, and presented as mean ± SEM. Cumulative distance traveled by larvae was measured by summing the incremental distance moved by each larva between frames of video files. […]

[7] = system: S. aureus ATCC 25923; parameters: method as in PMID 8297426; details: cited from earlier work
[8] = system: zebrafish (Danio rerio) larvae at 5 dpf; experiment: Zebrafish larvae simulated predator response (SPR) bioassay; type: in vivo; details: for SPR, profile across concentrations: 10 nM; for SPR, total distance moved vs vehicle control: p < 0.0001
Experimental: as §11, §12, §13, §14, §15

[9] = system: Mediterranean fish species Blennius sphinx; parameters: method as in PMID 15018063; details: cited from earlier work
[10] = ATCC208821, var. grubii ATCC 208821, read-out: MIC C. neoformans
[11] = ATCC27853, ATCC 27853, read-out: MIC P. aeruginosa
[12] = ATCC19606, ATCC 19606, read-out: MIC A. baumannii
[13] = ATCC27853, read-out: % inhibition P. aeruginosa, 32 µg/mL, duplicate (n = 2) values
[14] = ATCC19606, 32 µg/mL, duplicate (n = 2) values, read-out: % inhibition A. baumannii
[15] = ATCC19606, read-out: % inhibition A. baumannii, 32 µg/mL, duplicate (n = 2) values

Row | SMILES | MIC [1, 10] | MIC [2, 11] | MIC [3, 12] | % inhibition P. aeruginosa ([2]; duplicate (n = 2) values) | % inhibition A. baumannii ([3]; duplicate (n = 2) values) | CC50 [4] | CC50 ([4]; human) | Spontaneous swimming, profile across concentrations ([5]; 1 nM, 10 nM, 100 nM) | Spontaneous swimming, total distance moved vs vehicle control ([5]; 1 nM, 5 dpf larvae, p < 0.0001) | Spontaneous swimming, mean distance moved [5] | further results
1 | COC1=C(Br)[C@H](O)[C@@]2(C=C1Br)CC(C(=O)NCCCOc1c(Br)cc(CCN)cc1Br)=NO2 [Compound 11, araplysillin I] | > 32 µg/mL | > 32 µg/mL | > 32 µg/mL | 0.3% and 8.0% | 3.4% and 7.3% | > 32 µg/mL |  |  |  |  | 
2 | COC1=C(Br)[C@H](O)[C@](O)(CC#N)C=C1Br [Compound 1, (+)-aeroplysinin-1] |  |  |  | 18.2% |  | > 32 µg/mL |  | increased hypoactivity with higher concentrations | significant hyperactivity effects | reduced mean distance moved | MIC ([1]; ATCC208821, read-out: MIC C. neoformans): > 32 µg/mL; LPR, mean area under the curve across light and dark cycles vs vehicle control [6]: reduced hyperactivity at higher concentrations; MIC against S. aureus ATCC 25923 [7]: 25 µg/mL (≈ 73.8 µM); SPR, profile across concentrations ([8]; 1 nM, 100 nM): increased hypoactivity with higher concentrations; SPR, total distance moved vs vehicle control ([8]; 1 nM): significant hyperactivity effects; inhibition at 32 µg/mL [2, 13]: 10.9%; MIC ([2]; ATCC27853, read-out: MIC P. aeruginosa): > 32 µg/mL; MIC ([3]; ATCC19606, read-out: MIC A. baumannii): > 32 µg/mL
3 | COC1=C(Br)[C@H](O)[C@@]2(C=C1Br)CC(C(=O)NCCCOc1c(Br)cc(CCNC(=O)C3=NO[C@]4(C=C(Br)C(OC)=C(Br)[C@@H]4O)C3)cc1Br)=NO2 [Compound 5, 11,17-deoxyfistularin-3] | > 32 µg/mL | > 32 µg/mL | > 32 µg/mL | 7.2% | 8.5% | > 32 µg/mL |  |  |  |  | inhibition at 32 µg/mL [2, 13]: 4.3%; inhibition at 32 µg/mL [3, 15]: 10.2%
4 | COC1=C(Br)[C@H](O)[C@@]2(C=C1Br)CC(C(=O)NCCCCNC(=O)C1=NO[C@]3(C=C(Br)C(OC)=C(Br)[C@@H]3O)C1)=NO2 [Compound 2, aerothionin] | > 32 µg/mL | > 32 µg/mL | > 32 µg/mL |  |  |  | > 32 µg/mL | biphasic distribution of mean movement data |  |  | Spontaneous swimming, total distance moved vs vehicle control ([5]; all three concentrations (1 nM, 10 nM, 100 nM)): no significant difference to the vehicle control; LPR, mean area under the curve across light and dark cycles vs vehicle control [6]: biphasic distribution of mean movement data; SPR, profile across concentrations ([8]; 1 nM, 100 nM): biphasic distribution of mean movement data; feeding deterrent activity, Blennius sphinx [9]: significant feeding deterrent activity
5 | COC1=C(Br)[C@H](O)[C@@]2(C=C1Br)CC(C(=O)NCCCCCNC(=O)C1=NO[C@]3(C=C(Br)C(OC)=C(Br)[C@@H]3O)C1)=NO2 [Compound 3, homoaerothionin] | > 32 µg/mL | > 32 µg/mL | > 32 µg/mL | 10.4% and 2.2% | 9.8% | > 32 µg/mL |  | dose dependent hypoactivity effect | significant hyperactivity | reduced mean distance moved | SPR, total distance moved vs vehicle control ([8]; 100 nM): Clear hyperactivity; inhibition at 32 µg/mL [3, 15]: 13.8%

Further lines, with some results ahead:

Row | MIC [1, 10] | MIC [2, 11] | MIC [3, 12] | SMILES | % inhibition P. aeruginosa ([2]; duplicate (n = 2) values) | % inhibition A. baumannii ([3]; duplicate (n = 2) values) | CC50 [4] | CC50 ([4]; human) | Spontaneous swimming, profile across concentrations ([5]; 1 nM, 10 nM, 100 nM) | Spontaneous swimming, total distance moved vs vehicle control ([5]; 1 nM, 5 dpf larvae, p < 0.0001) | Spontaneous swimming, mean distance moved [5] | further results
6 | > 32 µg/mL | > 32 µg/mL | > 32 µg/mL | COC1(OC)C(Br)=CC(O)(CC(N)=O)C=C1Br [Compound 6, 2-(3,5-dibromo-1-hydroxy-4,4-dimethoxycyclohexa-2,5-dien-1-yl)acetamide] | 1.1% and 9.7% | 2.3% and 9.7% |  | > 32 µg/mL |  |  |  | Spontaneous swimming, total distance moved vs vehicle control ([5]; 10 nM, p < 0.0001): hyperactivity; Spontaneous swimming, total distance moved ([5]; 100 nM, p < 0.0001): curtailed
7 | > 32 µg/mL | > 32 µg/mL | > 32 µg/mL | NC(=O)Cc1c(O)cc(Br)c(O)c1Br [Compound 9, subereaphenol A] |  | 18.5% |  | > 32 µg/mL |  | significant hyperactivity | reduced mean distance moved | inhibition at 32 µg/mL [3, 14]: 10.8%
8 | > 32 µg/mL | > 32 µg/mL | > 32 µg/mL | COc1c(Br)cc(CC#N)c(O)c1Br [Compound 8, 2-(3,5-dibromo-2-hydroxy-4-methoxyphenyl)acetonitrile] | 6.8% | 7.5% |  | > 32 µg/mL |  |  |  | inhibition at 32 µg/mL ([2]; ATCC27853, 32 µg/mL, duplicate (n = 2) values, read-out: % inhibition P. aeruginosa): 11.2%; inhibition at 32 µg/mL [3, 14]: 11%
